# Measurements from patent US20240279283A1, “CYCLIC PEPTIDE ANTIBIOTICS” (priority 2021, published 2024).
# Bridge positions count the residues as written; N and C are the ends. Square brackets hold non-standard residues; d marks the D form. Peptide text beside a SMILES is read from it. Phe(4-Cl) = N[C@@H](Cc1ccc(Cl)cc1)C(=O)O; 1Nal = N[C@@H](Cc1cccc2ccccc12)C(=O)O; His(π-Me) = Cn1cncc1C[C@H](N)C(=O)O; NMeF = CN[C@@H](Cc1ccccc1)C(=O)O; Abu = CC[C@H](N)C(=O)O; Aib = CC(C)(N)C(=O)O
# Key:
# [1] = tested on: E. coli 25922 IMP; assay: Minimum Inhibitory Concentration (MIC) determination, E. coli 25922 IMP; assay type: cell-based; details: LB broth, 5×10^5 CFU/ml, 37° C., 18 hours, scored by eye
# Protocol: (§1) MICs were determined by performing two-fold serial dilutions of peptides in LB broth to a final volume of 0.1 ml in round-bottom 96-well assay plates (Corning Life Sciences No 3788). Peptides were initially resuspended in 100% DMSO to 10 mM and subsequently diluted in LB medium to the appropriate concentration. Each well was inoculated with 5×10^5 CFU/ml of the screening stain and incubated at 37° C. without agitation for 18 hours. Plates were scored by eye, and the lowest compound concentration preventing visible growth was determined to be the MIC.
# [2] = tested on: E. coli BW25113; assay: Minimum Inhibitory Concentration (MIC) determination, E. coli BW25113; assay type: cell-based; design: unit not given here; details: LB broth, 5×10^5 CFU/ml, 37° C., 18 hours, scored by eye
# Protocol: as §1
SMILES,MIC E. coli 25922 IMP WUXI::MIC [1],MIC E. coli BW25113 WUXI::MIC [2]
CC[C@H](C)[C@@H]1NC(=O)[C@H]([C@@H](C)O)NC(=O)[C@H](Cc2cncn2C)NC(=O)[C@H](Cc2ccccc2)NC(=O)CSC[C@@H](C(=O)NCC(N)=O)NC(=O)[C@H](Cc2ccc(O)cc2)NC(=O)[C@H](Cc2c[nH]c3ccccc23)NC(=O)[C@H](Cc2ccc(O)cc2)NC(=O)[C@H](Cc2cncn2C)NC(=O)[C@H](Cc2ccccc2)NC(=O)C(C)(C)NC(=O)[C@H](CCCNC(=N)N)NC(=O)[C@H](CCCNC(=N)N)NC(=O)[C@H](CCCNC(=N)N)NC1=O [Compound 53] ({CH2CO}-F[His(π-Me)]TIRRR[Aib]F[His(π-Me)]YWYCG-NH2; thioether N-14),0.25,4
"CC[C@@H]1NC(=O)[C@H](Cc2ccccc2)NC(=O)CSC[C@@H](C(=O)NCC(N)=O)NC(=O)[C@H](Cc2cncn2C)NC(=O)[C@H](CC)NC(=O)[C@H](Cc2c[nH]cn2)NC(=O)[C@H](Cc2ccccc2)N(C)C(=O)[C@H](CCCNC(=N)N)NC(=O)[C@H](CO)NC(=O)CNC(=O)[C@H](Cc2c[nH]cn2)NC(=O)[C@H](Cc2c[nH]c3ccccc23)NC1=O [Compound 4, (3R,6S,9S,12S,15S,18S,21S,27S,30S, 33S,36S)-N-(2-amino-2-oxo-ethyl)-15,36-dibenzyl-9,33-diethyl-18-(3-guanidinopropyl)-21-(hydroxymethyl)-12,27-bis(1H-imidazol-4-ylmethyl)-30-(1H-indol-3-ylmethyl)-16-methyl-6-[(3-methylimidazol-4-yl)methyl]-5,8,11,14,17,20,23,26,29,32,35,38-dodecaoxo-1-thia-4,7,10,13,16,19,22,25,28,31,34,37-dodecazacyclononatriacontane-3-carboxamide] ({CH2CO}-F[Abu]WHGSR[NMeF]H[Abu][His(π-Me)]CG-NH2; thioether N-12)",0.128,>32
"CC[C@@H]1NC(=O)[C@H](Cc2ccccc2)NC(=O)CSC[C@@H](C(=O)NCC(N)=O)NC(=O)[C@H](Cc2cncn2C)NC(=O)[C@H](CCCNC(=N)N)NC(=O)[C@H](Cc2cnc[nH]2)NC(=O)[C@H](Cc2ccccc2)N(C)C(=O)[C@H](CCCNC(=N)N)NC(=O)[C@H](CO)NC(=O)CNC(=O)[C@H](Cc2cnc[nH]2)NC(=O)[C@H](Cc2cccc3ccccc23)NC1=O (racemic) [Compound 10, rac-(3R,6S,9S,12S,15S,18S,21S,27S,30S,3 3S,36S)-N-(2-amino-2-oxo-ethyl)-15,36-dibenzyl-33-ethyl-9,18-bis(3-guanidinopropyl)-21-(hydroxymethyl)-12,27-bis(1H-imidazol-5-ylmethyl)-16-methyl-6-[(3-methylimidazol-4-yl)methyl]-30-(1-naphthylmethyl)-5,8,11,14,17,20,23,26,29,32,35,38-dodecaoxo-1-thia-4,7,10,13,16,19,22,25,28,31,34,37-dodecazacyclononatriacontane-3-carboxamide]",2.3842E−07,8
"CC(C)[C@@H]1NC(=O)[C@H](Cc2ccccc2)NC(=O)CSC[C@@H](C(=O)NCC(N)=O)NC(=O)[C@H](Cc2cncn2C)NC(=O)[C@H](CCCNC(=N)N)NC(=O)[C@H](Cc2cnc[nH]2)NC(=O)[C@H](Cc2ccccc2)N(C)C(=O)[C@H](CCCNC(=N)N)NC(=O)[C@H](CO)NC(=O)CNC(=O)[C@H](Cc2cnc[nH]2)NC(=O)[C@H](Cc2c[nH]c3ccccc23)NC1=O (racemic) [Compound 9, rac-(3R,6S,9S,12S,15S,18S,21S,27S,30S, 33S,36S)-N-(2-amino-2-oxo-ethyl)-15,36-dibenzyl-9,18-bis(3-guanidinopropyl)-21-(hydroxymethyl)-12,27-bis(1H-imidazol-5-ylmethyl)-30-(1H-indol-3-ylmethyl)-33-isopropyl-16-methyl-6-[(3-methylimidazol-4-yl)methyl]-5,8,11,14,17,20,23,26,29,32,35,38-dodecaoxo-1-thia-4,7,10,13,16,19,22,25,28,31,34,37-dodecazacyclononatriacontane-3-carboxamide]",9.5367E−07,8
"CC[C@H](C)[C@@H]1NC(=O)[C@H]([C@@H](C)O)NC(=O)[C@H](Cc2cncn2C)NC(=O)[C@H](Cc2ccccc2)NC(=O)CSC[C@@H](C(=O)NCC(N)=O)NC(=O)[C@H](Cc2ccccc2)NC(=O)[C@H](Cc2c[nH]c3ccccc23)NC(=O)[C@H](Cc2ccc(O)cc2)NC(=O)[C@H](Cc2cncn2C)NC(=O)[C@H](Cc2ccccc2)NC(=O)C(C)(C)NC(=O)[C@H](CCCNC(=N)N)NC(=O)[C@H](CCCCN)NC(=O)[C@H](CCCNC(=N)N)NC1=O [Compound 54, trifluoroacetic acid] ({CH2CO}-F[His(π-Me)]TIRKR[Aib]F[His(π-Me)]YWFCG-NH2; thioether N-14)",0.5,8
CC[C@H](C)[C@@H]1NC(=O)[C@H]([C@@H](C)O)NC(=O)[C@H](Cc2cncn2C)NC(=O)[C@H](Cc2ccccc2)NC(=O)CSC[C@@H](C(=O)NCC(N)=O)NC(=O)[C@H](Cc2ccc(O)cc2)NC(=O)[C@H](Cc2ccc(Cl)cc2)NC(=O)[C@H](Cc2ccc(O)cc2)NC(=O)[C@H](CCCNC(=N)N)NC(=O)[C@H](Cc2ccccc2)NC(=O)C(C)(C)NC(=O)[C@H](CCCNC(=N)N)NC(=O)[C@H](CCCCN)NC(=O)[C@H](CCCNC(=N)N)NC1=O [Compound 58] ({CH2CO}-F[His(π-Me)]TIRKR[Aib]FRY[Phe(4-Cl)]YCG-NH2; thioether N-14),0.25,2
"CC[C@@H]1NC(=O)[C@H](Cc2c[nH]cn2)NC(=O)[C@H](Cc2ccccc2)N(C)C(=O)[C@H](CC)NC(=O)[C@H](CO)NC(=O)CNC(=O)[C@H](Cc2c[nH]cn2)NC(=O)[C@H](Cc2cccc3ccccc23)NC(=O)[C@H](C(C)C)NC(=O)[C@H](Cc2ccccc2)NC(=O)CSC[C@@H](C(=O)NCC(N)=O)NC(=O)[C@H](Cc2cncn2C)NC1=O [Compound 8, (3R,6S,9S,12S,15S,18S,21S,27S,30S, 33S,36S)-N-(2-amino-2-oxo-ethyl)-15,36-dibenzyl-9,18-diethyl-21-(hydroxymethyl)-12,27-bis(1H-imidazol-4-ylmethyl)-33-isopropyl-16-methyl-6-[(3-methylimidazol-4-yl)methyl]-30-(1-naphthylmethyl)-5,8,11,14,17,20,23,26,29,32,35,38-dodecaoxo-1-thia-4,7,10,13,16,19,22,25,28,31,34,37-dodecazacyclononatriacontane-3-carboxamide] ({CH2CO}-FV[1Nal]HGS[Abu][NMeF]H[Abu][His(π-Me)]CG-NH2; thioether N-12)",4,>32
CC[C@H](C)[C@@H]1NC(=O)C(C)(C)NC(=O)[C@H](Cc2cncn2C)NC(=O)[C@H](Cc2ccccc2)NC(=O)CSC[C@@H](C(=O)NCC(N)=O)NC(=O)[C@H](Cc2ccc(O)cc2)NC(=O)[C@H](Cc2c[nH]c3ccccc23)NC(=O)[C@H](Cc2ccc(O)cc2)NC(=O)[C@H](CCCNC(=N)N)NC(=O)[C@H](Cc2ccccc2)NC(=O)C(C)(C)NC(=O)[C@H](CCCNC(=N)N)NC(=O)[C@H](CCCCN)NC(=O)[C@H](CCCNC(=N)N)NC1=O [Compound 57] ({CH2CO}-F[His(π-Me)][Aib]IRKR[Aib]FRYWYCG-NH2; thioether N-14),2,>32
CC[C@@H]1NC(=O)[C@H](Cc2ccccc2)NC(=O)CSC[C@@H](C(=O)NCC(N)=O)NC(=O)[C@H](Cc2cncn2C)NC(=O)[C@H](CCCNC(=N)N)NC(=O)[C@H](Cc2cnc[nH]2)NC(=O)[C@H](Cc2ccc(O)cc2)N(C)C(=O)[C@H](CCCNC(=N)N)NC(=O)[C@H](CO)NC(=O)CN(C)C(=O)[C@H](Cc2cnc[nH]2)NC(=O)[C@H](Cc2c[nH]c3ccccc23)NC1=O (racemic) [Compound 13],0.00,4
CC[C@@H]1NC(=O)[C@H](Cc2ccccc2)NC(=O)CSC[C@@H](C(=O)NCC(N)=O)NC(=O)[C@H](Cc2cncn2C)NC(=O)[C@H](CCCNC(=N)N)NC(=O)[C@H](Cc2cnc[nH]2)NC(=O)[C@H](Cc2ccc(O)cc2)N(C)C(=O)[C@H](CCCNC(=N)N)NC(=O)[C@H](CO)NC(=O)CNC(=O)[C@H](Cc2cnc[nH]2)NC(=O)[C@H](Cc2c[nH]c3ccccc23)NC1=O (racemic) [Compound 12],3.8137E−06,1
"CC(C)[C@@H]1NC(=O)[C@H](Cc2ccccc2)NC(=O)CSC[C@@H](C(=O)NCC(N)=O)NC(=O)[C@H](Cc2cncn2C)NC(=O)[C@H](CCCNC(=N)N)NC(=O)[C@H](Cc2cnc[nH]2)NC(=O)[C@H](Cc2ccccc2)N(C)C(=O)[C@H](CCCNC(=N)N)NC(=O)[C@H](CO)NC(=O)CNC(=O)[C@H](Cc2c[nH]cn2)NC(=O)[C@H](Cc2cccc3ccccc23)NC1=O [Compound 6, (3R,6S,9S,12S,15S,18S,21S,27S,30S, 33S,36S)-N-(2-amino-2-oxo-ethyl)-15,36-dibenzyl-9,18-bis(3-guanidinopropyl)-21-(hydroxymethyl)-12,27-bis(1H-imidazol-4-ylmethyl)-33-isopropyl-16-methyl-6-[(3-methylimidazol-4-yl)methyl]-30-(1-naphthylmethyl)-5,8,11,14,17,20,23,26,29,32,35,38-dodecaoxo-1-thia-4,7,10,13,16,19,22,25,28,31,34,37-dodecazacyclononatriacontane-3-carboxamide] ({CH2CO}-FV[1Nal]HGSR[NMeF]HR[His(π-Me)]CG-NH2; thioether N-12)",<0.000125,2
